{"source": "patent US5275819A", "about": "“Drug loaded pollen grains with an outer coating for pulsed delivery” (Amer Particle Technologies Inc., priority 1991, dated 1994)", "origin": "cited, not measured here", "conditions": "compared with GNRH", "data": [{"smiles": "CC(C)C[C@H](NC(=O)[C@@H](Cc1ccc2ccccc2c1)NC(=O)[C@H](Cc1ccc(O)cc1)NC(=O)[C@H](CO)NC(=O)[C@H](Cc1c[nH]c2ccccc12)NC(=O)[C@H](Cc1c[nH]cn1)NC(=O)[C@@H]1CCC(=O)N1)C(=O)N[C@@H](CCCNC(=N)N)C(=O)N1CCC[C@H]1C(=O)NCC(N)=O", "note": "[Nafarelin]", "values": [{"measurement": "activity relative to GNRH", "value": 200, "unit": "times"}]}]}
